Laboratory results as given in publication PMC11443518, “Undescribed Amaryllidaceae Alkaloids from Zephyranthes citrina and Their Cytotoxicity” (Journal of Natural Products, 2024).

Columns and labels:
[1] = system: MCF-7 (breast adenocarcinoma); assay: WST-1 cell proliferation assay, cytotoxicity screening; type: cell-based, human; conditions: Homo sapiens, MCF7, 48 h, read-out: growth percent (GP) MCF-7
Description: (§1) Selected human tumor and nontumor cell lines Jurkat (acute T-cell leukemia), MOLT-4 (acute lymphoblastic leukemia), A549 (lung carcinoma), HT-29 (colorectal adenocarcinoma), PANC-1 (pancreas epithelioid carcinoma), A2780 (ovarian carcinoma), HeLa (cervix adenocarcinoma), MCF-7 (breast adenocarcinoma), SAOS-2 (osteosarcoma) and MRC-5 (nontumor lung fibroblasts) were purchased from European Collection of Authenticated Cell Cultures (ECACC, Salisbury, UK) and cultured according to the provider’s culture method guidelines. […] The cells in low passage number (nontumor primary cell line MRC-5 was used for a maximum of 10 passages and cancer cell lines were used for a maximum of 20 passages) and in an exponential growth phase were used for this study.
(§2) Each cell line was seeded at a previously established optimal density (1 × 10^3 to 50 × 10^3 cells per well) in a 96-well plate (TPP, Trasadingen, Switzerland) and cells were allowed to settle overnight. During screening tests for cytotoxicity, cells were treated with alkaloids at a final concentration of 10 μM for 48 h. Doxorubicin (Sigma-Aldrich, St. Louis, USA), at a concentration of 1 μM, was used as a positive control. At the end of the culture period, the WST-1 proliferation assay (Roche, Basel, Switzerland) was performed according to the manufacturer’s protocol. The absorbance was determined using a Tecan Spark microplate reader (Tecan, Männedorf, Switzerland). Each value is the mean of three independent experiments and represents the percentage of the proliferation of control, nontreated cells (100%). The growth percent (GP) value as the mean of the proliferation decrease was calculated for each cell line and derivative tested.

[2] = system: MOLT-4 (acute lymphoblastic leukemia); assay: as above; type: cell-based, human; conditions: Homo sapiens, MOLT-4, 48 h, read-out: growth percent (GP) MOLT-4
Description: as §1, §2

[3] = system: nine human tumor and one nontumor cell lines; assay: Cytotoxicity screening across the whole panel of cell lines; type: cell-based; conditions: for activity at 10 µM: Homo sapiens, 48 h, read-out: GP value across the tested cell lines
Description: Concerning the cytotoxicity of alkaloids isolated from Z. citrina, initially, Prakash and Vedanayaki investigated the MeOH extract of the bulbs for its in vitro cytotoxic activity using the MTT assay against three human cancer cell lines from different tissue origins: cervical cancer (HeLa), breast cancer (MCF-7), and oral squamous carcinoma (SCC-9). […] In this context, and to assess potential negative effects on human cell cultures, compounds 1, and 3–27 were screened in our study for cytotoxicity using a 10 μM single-dose regimen. The results were compared with those using the clinically approved antineoplastic agent doxorubicin at 1 μM. The effect on cell growth was investigated on nine human tumor and one nontumor cell lines, namely Jurkat (acute T-cell leukemia), MOLT-4 (acute lymphoblastic leukemia), A549 (lung carcinoma), HT-29 (colorectal adenocarcinoma), PANC-1 (pancreas epithelioid carcinoma), A2780 (ovarian carcinoma), HeLa (cervix adenocarcinoma), MCF-7 (breast adenocarcinoma), SAOS-2 (osteosarcoma) and MRC-5 (nontumor lung fibroblasts). […] No toxicity is valuable information, especially for compound 18, as it is a potent inhibitor of hAChE and hBChE.[27]
Selected human tumor and nontumor cell lines Jurkat (acute T-cell leukemia), MOLT-4 (acute lymphoblastic leukemia), A549 (lung carcinoma), HT-29 (colorectal adenocarcinoma), PANC-1 (pancreas epithelioid carcinoma), A2780 (ovarian carcinoma), HeLa (cervix adenocarcinoma), MCF-7 (breast adenocarcinoma), SAOS-2 (osteosarcoma) and MRC-5 (nontumor lung fibroblasts) were purchased from European Collection of Authenticated Cell Cultures (ECACC, Salisbury, UK) and cultured according to the provider’s culture method guidelines. All cell lines were maintained at 37 °C in a humidified 5% carbon dioxide and 95% air incubator. The cells in low passage number (nontumor primary cell line MRC-5 was used for a maximum of 10 passages and cancer cell lines were used for a maximum of 20 passages) and in an exponential growth phase were used for this study.
as §2

[4] = system: HeLa (cervix adenocarcinoma); assay: WST-1 cell proliferation assay, cytotoxicity screening; type: cell-based; conditions: Homo sapiens, 48 h, read-out: growth percent (GP) HeLa
Description: as §1, §2

[5] = system: MRC-5 (nontumor lung fibroblasts); assay: as above; type: cell-based; conditions: Homo sapiens, MRC5, 48 h, read-out: growth percent (GP) MRC-5
Description: as §1, §2

[6] = system: A2780 (ovarian carcinoma); assay: as above; type: cell-based; conditions: Homo sapiens, A2780, 48 h, read-out: growth percent (GP) A2780
Description: as §1, §2

[7] = system: PANC-1 (pancreas epithelioid carcinoma); assay: as above; type: cell-based; conditions: Homo sapiens, PANC-1, 48 h, read-out: growth percent (GP) PANC-1
Description: as §1, §2

[8] = system: HT-29 (colorectal adenocarcinoma); assay: as above; type: cell-based; conditions: Homo sapiens, HT-29, 48 h, read-out: growth percent (GP) HT-29
Description: as §1, §2

A549 (lung carcinoma) = assay: as above; type: cell-based; conditions: Homo sapiens, A549, 48 h, read-out: growth percent (GP) A549
Description: as §1, §2

SAOS-2 (osteosarcoma) = assay: as above; type: cell-based; conditions: Homo sapiens, SAOS-2, 48 h, read-out: growth percent (GP) SAOS-2
Description: as §1, §2

[9] = system: Jurkat (acute T-cell leukemia); assay: as above; type: cell-based; conditions: Homo sapiens, 48 h, read-out: growth percent (GP) Jurkat
Description: as §1, §2

| SMILES | activity at 10 µM [1] [%] | activity at 10 µM [2] [%] | activity at 10 µM [3] [%] | activity at 10 µM [4] [%] | activity at 10 µM [5] [%] | activity at 10 µM [6] [%] | activity at 10 µM [7] [%] | activity at 10 µM [8] [%] | activity at 10 µM (A549 (lung carcinoma)) [%] | activity at 10 µM (SAOS-2 (osteosarcoma)) [%] | activity at 10 µM [9] [%] | GP value across the tested cell lines ([3]; 10 μM single dose, 48-h interval, all tested cell lines) |
| --- | --- | --- | --- | --- | --- | --- | --- | --- | --- | --- | --- | --- |
| COc1cc(-c2cccc3c2N(C)CC3)c(CN2CC[C@@]34C=C[C@H](O)C[C@@H]3Oc3c(OC)ccc(c34)C2)c(OC)c1OC [Compound 18, narcielline] | 115 | 95 | > 50 | 90 | 111 | 88 | 111 | 106 | 110 | 106 | 103 | – |
| COc1cc2c(cc1OC)[C@@]13CC[C@@H](O)C[C@@H]1N(CC3)C2 [Compound 11] | 104 | 95 | > 50 | 98 | 104 | 107 | 100 | 97 | 88 | 97 | 99 | – |
| O[C@@H]1C=C[C@]23CCN(Cc4cc5c(cc42)OCO5)[C@H]3C1 [Compound 14] | 79 | 92 | > 50 | 100 | 83 | 98 | 84 | 84 | 80 | 79 | 91 | – |
| COc1cc2c(cc1OC)[C@@]13C=CC(O)C[C@@H]1N(CC3)C2 (some centres unmarked) [Compound 15, maritidine] | 98 | 100 | > 50 | 101 | 104 | 94 | 91 | 93 | 95 | 94 | 104 | lack of inhibitory activity |
| COc1cc2c(c(O)c1OC)[C@@]13CC[C@H](OC)C[C@@H]1N(CC3)C2O (some centres unmarked) [Compound 10, zephyranine F] | 99 | 78 | > 50 | 82 | 97 | 113 | 77 | 88 | 81 | 73 | 89 | – |
